The source of these data is EP0162413A2, “Polyamine for use as a medicine in the treatment of neoplasms” (MERRELL DOW PHARMACEUTICALS INC., priority 1984, dated 1985).

In general, % Inhibition refers to the share of the control response that was lost under treatment. Read a high % Inhibition as a response far below the control.

For series [1], the system named is B16 Melanoma. Nature of the series: Survival of B16 melanoma bearing mice (DFMO, norspermidine). The series is classed as in vivo. Particulars: B16 i.p.; Norspermidine i.p. 50 mg/kg/day day 1 to 7; DFMO 2% in drinking water. How it is done:
1 x 10^5 B16 melanoma cells per animal were injected i.p. on day 0. Drug treatments were started on day 1. DFMO was administered as a 2% solution in drinking water (approximately 3 g/kg based on fluid intake). Norspermidine was administered i.p. at 50 mg/kg/day starting day 1 to 7. [formula]

Another series concerns Lewis Lung Tumor (3LL). Nature of the series: Growth of Lewis lung tumor (3LL) in mice (DFMO, norspermidine). The format is in vivo. The note with it: 3LL s.c.; Norspermidine i.p. 50 mg/kg/day day 1 to 14; DFMO 2% in drinking water; tumors weighed at end of 18 days. Here is the method: 1 x 10^5 3LL cells per animal were injected s.c. in the intrascapular region of the mice on day 0. Drug treatments were started on day 1. DFMO was administered as a 2% solution in drinking water (approximately 3 g/kg based on fluid intake). Norspermidine was administered i.p. 50 mg/kg/day from day 1 to 14. At the end of 18 days, animals were sacrificed, tumors disected and weighed.

Series [2] concerns L1210 Leukemia. Put plainly: Survival of mice with L1210 leukemia (norspermidine, DFMO). The format is in vivo. Particulars: Norspermidine i.p. 50 mg/kg/day day 1 to 7; DFMO 2% solution in drinking water (approximately 3 g/kg). How it is done: (§1) 1 x 10^5 L1210 leukemic cells per animal were innoculated i.p. on day 0 and drug treatments were started on day 1. DFMO was administered as 2% solution in drinking water (approximately 3 g/kg based on fluid intake). Norspermidine was administered i.p. at 50 mg/kg/day from day 1 to 7. Polyamine concentrations were determined on cells collected from treated and control animals on day 4. ND: not detectable; [formula]

In series [3] the test system is L1210 Leukemia. Nature of the series: Polyamine levels of L1210 leukemia cells collected from treated mice. The format is in vivo. Particulars: L1210 cells collected on day 4; Norspermidine i.p. 50 mg/kg/day; DFMO 2% in drinking water. How it is done:
as §1

Series [4] relates to HeLa Cells. Nature of the series: Growth and mitotic index of HeLa cells in culture (norspermidine). The note with it: 72 hours, 37°C. The format is cell-based, Human.
The subject of series [5] is HeLa Cells. Put plainly: Polyamine levels of HeLa cells in culture (norspermidine). The series is classed as cell-based, Human.
Another series concerns Lewis Lung Carcinoma. Put plainly: Antitumor activity against Lewis lung carcinoma in mice, tumor weight. The format is in vivo. Particulars: day 1-10, tumor cells s.c., sacrificed on day 15. Here is the method:
(§2) 1 x 10^5 tumor cells/animal were inoculated s.c. on day 0 and the drug treatments were started on day 1. "N,N'-bis (3-aminopropyl)-1, 8-octanediamine was administered at different doses from day 1-10. The animals were sacrificed on day 15 and the tumors were dissected and weighed.

Series [6] deals with Mouse Melanoma (B16) Cells. Nature of the series: Growth of B16 melanoma cells in culture (N,N'-bis(3-aminopropyl)-1,8-octanediamine). The note with it: 72 hours, 37°C. The series is classed as cell-based. How it is done:
(§3) HeLa cells and B16 melanoma cells were plated at a density of 1 x 10^5/plate (35 mm) and incubated overnight. Different concentrations of the compound in regular medium --were added and cell growth was determined after 72 hours of incubation at 37°C.

Series [7] has as its system L1210 Leukemia. Put plainly: Antitumor activity against L1210 leukemia in mice, survival (N,N'-bis(3-aminopropyl)-1,8-octanediamine). The series is classed as in vivo. How it is done:
Treatment Survival (Days) % T/C Control 7.5 ^± 0.5 Compound 25 mg/kg^* 16.0 ^± 1.5 213.3 6.26 mg/kg^** 27 ^± 3.0 360.0 1 x 10^5 L1210 leukemic cells/animal were inoculated i.p. on day 0 and drug treatments were started as follows: * N,N'-bis(3-aminopropyl)-1,8-octanediamine was administered i.p. at 25 mg/Kg/day. from day 1-7. ^** The compound was administered i.p. at 6.25 mg/kg 4 times a day, every three hours starting at 8:30 a.m. to 5:30 p.m. from days 3-7. [formula]

The subject of series [8] is Human Cervical Cancer (HeLa). Put plainly: Growth of HeLa cells in culture (N,N'-bis(3-aminopropyl)-1,8-octanediamine). The series is classed as cell-based. Particulars: 72 hours, 37°C. Here is the method:
as §3

For series [9], the system named is B16 Melanoma. Nature of the series: Antitumor activity against B16 melanoma in mice, tumor weight. The note with it: day 1-10, tumor cells s.c., sacrificed on day 15. The format is in vivo. Here is the method: as §2

Regarding `NCCC[C@](N)(C(=O)O)C(F)F` [DFMO, α-difluoromethyl ornithine, reference compound], in the series on B16 Melanoma [1], the “% T/C” value stood at 129% and the “Survival” value amounted to 17.5 days. In the series on Lewis Lung Tumor (3LL), the “% Inhibition” value is reported as 4% and the “Tumor Weight (gr)” value amounted to 4.92 gr. Also, in the series on L1210 Leukemia [2], the “% T/C” value is on record as 107% and the “Survival” value was 8.0 days. In addition, in the series with L1210 Leukemia [3], the “Polyamine Concentration Putrescine” value turned out to be 0.015 n·moles/10^6 cells, the “Polyamine Concentration Spermidine” value came to 0.84 n·moles/10^6 cells and the “Polyamine Concentration Spermine” value was determined as 1.18 n·moles/10^6 cells.
For `NCCCNCCCN` [Norspermidine, norspermidine], the “% T/C” value with B16 Melanoma [1] stood at 133%; with L1210 Leukemia [2], 147%. Besides, the results for the “Survival” value in the series with B16 Melanoma [1] and in the series on L1210 Leukemia [2] were 18.0 days and 11.0 days, respectively. For the same compound, the “% Inhibition” value in the series with Lewis Lung Tumor (3LL) came to 32%. Also, the “Tumor Weight (gr)” value in the series with Lewis Lung Tumor (3LL) worked out at 3.50 gr. Besides, the figures for the “Cell No. x 10^6” value in the series with HeLa Cells [4] (0.005 mM), in the series on HeLa Cells [4] (0.05 mM) and in the series on HeLa Cells [4] (0.5 mM) were 0.70 x 10^6, 0.64 x 10^6 and 0.70 x 10^6, respectively. For the same compound, the “Mitotic Index” value is 74.0 in the series on HeLa Cells [4] (0.005 mM), 76.7 with HeLa Cells [4] (0.05 mM) and 71.0 in the series on HeLa Cells [4] (0.5 mM). The inhibition at 5 µM with HeLa Cells [4] (Homo sapiens, HeLa, 0.005 mM, read-out: % Inhibition of Cell Growth) is 61%. Moreover, the inhibition at 50 µM with HeLa Cells [4] (Homo sapiens, HeLa, 0.05 mM, read-out: % Inhibition of Cell Growth) is 65%. For the same compound, the inhibition at 500 µM in the series on HeLa Cells [4] (Homo sapiens, HeLa, 0.5 mM, read-out: % Inhibition of Cell Growth) came out at 61%. Moreover, the figures for the “Polyamine Concentration Norspermidine” value with HeLa Cells [5] (0.005 mM), with HeLa Cells [5] (0.05 mM) and with HeLa Cells [5] (0.5 mM) were 5.31 n·moles/10^6 cells, 4.30 n·moles/10^6 cells and 6.32 n·moles/10^6 cells, respectively. Moreover, in the series with HeLa Cells [5] (0.005 mM), the “Polyamine Concentration Putriscine” value is reported as 0.026 n·moles/10^6 cells. The “Polyamine Concentration Spermidine” value in the series with HeLa Cells [5] (0.005 mM) is on record as 0.849 n·moles/10^6 cells; in the series with HeLa Cells [5] (0.05 mM), 0.433 n·moles/10^6 cells; in the series on HeLa Cells [5] (0.5 mM), 0.481 n·moles/10^6 cells; in the series on L1210 Leukemia [3], 0.69 n·moles/10^6 cells. The “Polyamine Concentration Spermine” value in the series with HeLa Cells [5] (0.005 mM) stood at 0.637 n·moles/10^6 cells; with HeLa Cells [5] (0.05 mM), 0.452 n·moles/10^6 cells; in the series on HeLa Cells [5] (0.5 mM), 0.441 n·moles/10^6 cells; in the series with L1210 Leukemia [3], 0.77 n·moles/10^6 cells.
`NCCCNCCCCCCCCNCCCN` [N,N'-bis(3-aminopropyl)-1,8-octanediamine]: the entries for the “Lewis Lung Carcinoma % Inh.” value with Lewis Lung Carcinoma (6.25 mg/kg) and in the series on Lewis Lung Carcinoma (12.5 mg/kg) were 37% and 61%, respectively. In addition, the “Lewis Lung Carcinoma Tumor Weight (gms)” value in the series on Lewis Lung Carcinoma (6.25 mg/kg) was 3.10 ± 0.39 gms; with Lewis Lung Carcinoma (12.5 mg/kg), 1.94 ± 0.24 gms. Moreover, the “B16 Melanoma Cell No. x 10^6” value is on record as 14.5 x 10^6 in series [6] (0.001 mM), 7.40 x 10^6 in series [6] (0.01 mM), 7.42 x 10^6 in series [6] (0.1 mM) and 0 x 10^6 in [6] (1.0 mM). In addition, the inhibition at 1 µM was determined as 16% in [6] (Mus musculus, B16, 0.001 mM, read-out: B16 Melanoma % Inh. of Cell Growth) and 39% in series [8] (Homo sapiens, HeLa, 0.001 mM, read-out: HeLa Cells % Inh. of Cell Growth). Moreover, the inhibition at 10 µM was 57% in [6] (Mus musculus, B16, 0.01 mM, read-out: B16 Melanoma % Inh. of Cell Growth) and 50% in series [8] (Homo sapiens, HeLa, 0.01 mM, read-out: HeLa Cells % Inh. of Cell Growth). Also, the inhibition at 100 µM in series [6] (Mus musculus, B16, 0.1 mM, read-out: B16 Melanoma % Inh. of Cell Growth) is 57%; in series [8] (Homo sapiens, HeLa, 0.1 mM, read-out: HeLa Cells % Inh. of Cell Growth) it was 62%. Also, the inhibition at 1000 µM turned out to be 100% in series [6] (Mus musculus, B16, 1.0 mM, read-out: B16 Melanoma % Inh. of Cell Growth) and 76% in series [8] (Homo sapiens, HeLa, 1.0 mM, read-out: HeLa Cells % Inh. of Cell Growth). For the same compound, the “% T/C” value was determined as 360.0% in the series on L1210 Leukemia [7] (6.26 mg/kg (footnote: i.p. at 6.25 mg/kg 4 times a day, every three hours, days 3-7)) and 213.3% in the series with L1210 Leukemia [7] (25 mg/kg: i.p. at 25 mg/Kg/day from day 1-7). The “HeLa Cells Cell No. x 10^5” value in series [8] (0.001 mM) is 7.56 x 10^5; in [8] (0.01 mM), 5.9 x 10^5; in [8] (0.1 mM) it was 4.56 x 10^5; in series [8] (1.0 mM), 2.82 x 10^5. For the same compound, the “B16 Melanoma % Inh.” value in the series on B16 Melanoma [9] (6.25 mg/kg) is reported as 66%; in the series with B16 Melanoma [9] (12.5 mg/kg), 81%. Further, the “B16 Melanoma Tumor Weight (gms)” value is recorded as 1.68 ± 0.37 gms in the series on B16 Melanoma [9] (6.25 mg/kg) and 0.95 ± 0.29 gms in the series with B16 Melanoma [9] (12.5 mg/kg).
